The values that follow come from patent publication US20230174526A1, “BENZOTHIAZOLYL BIARYL COMPOUND, AND PREPARATION METHOD AND USE” (SHANGHAI RINGENE BIOPHARMA CO., LTD., priority 2020, published 2023).

The test system of series [1] is NCI-H358 (lung cancer) cells. The experiment in a line: Proliferation test method 1 (2D, MTT), NCI-H358. Format: cell-based. The following applies: Homo sapiens, 5-7 days, read-out: IC50 proliferation inhibitory activity against NCI-H358. On the procedure: (§1) Test method 1 (2D):NCI-H358 (lung cancer) and MiaPaca-2 cells (pancreatic cancer) cells (100 µL/well, 20,000 cells/mL) were inoculated in 96-well culture plates supplemented with 10% fetal bovine serum and 1% penicillin/streptomycin sulfate, respectively.Using 0.5% dimethyl sulfoxide as a blank control, cells were treated with a solution of the compound to be tested at a starting concentration of 10 µM, tripled diluted testing solution of the compound in eight gradients were used to treat cells, and then incubated in a 5% CO2 incubator for a certain period of time (5-7 days).At the end of incubation, 10 µL of MTT stock solution (5 mg/mL) was added to each well.The culture plates were incubated at 37° C. for 4 h and then the medium was removed.Dimethyl sulfoxide (100 µL) was added to each well and then shaken sufficiently. The absorbance of the product formazanwas measured at 570 nm on the Thermo Scientific Varioskan Flash multimode reader.IC50 values were obtained by fitting dose-response data into a three-parameter nonlinear regression model using GraphPad Prism 6.0 software.

The nature of series [2]: Metabolic stability assay, human liver microsomes. The following applies: human liver microsomes 0.5 mg/mL, 1 µM compound, read-out: Liver microsomal stability (T½ /min) human. The class given is in vitro ADME. How it is done:
(§2) Metabolic stability assay: A warm incubation for metabolic stability was performed with a system of 150 µL of liver microsomes (final concentration 0.5 mg/mL) containing NADPH (final concentration 1 mM), 1 µM of the test compound and positive control midazolam or negative control atenolol, and the reaction was terminated with acetonitrile containing tinidazole at 0 min, 5 min, 10 min and 30 min, respectively. The reaction was vortexed for 10 min and centrifuged at 15000 rmp for 10 min, and 50 µL of supernatant was taken into the 96-well plate for sampling. The metabolic stability of the compound was calculated by measuring the relative reduction of the drugs.
Background: Liver microsomes are vesicles of endoplasmic reticulum, rich in cytochrome P450 enzymes.

Series [3] is described as follows: Metabolic stability assay, monkey liver microsomes. Format: in vitro ADME. The following applies: monkey liver microsomes 0.5 mg/mL, 1 µM compound, read-out: Liver microsomal stability (T½ /min) monkey. On the procedure: as §2
The next series has as its target T1, CYP3A4 (Homo sapiens, UniProt P08684).
T1 construct: a system of 100 µL of human liver microsomes (final concentration 0.2 mg/mL); from tissue; host or cells: human liver microsomes
The series is described as follows: Direct inhibition test (DI test), CYP3A4. The class given is in vitro ADME. As to conditions: human liver microsomes. How it is done: (§3) Direct inhibition test (DI test): direct inhibition warm incubation was performed with a system of 100 µL of human liver microsomes (final concentration 0.2 mg/mL) containing NADPH (final concentration 1 mM), 10 µM compound, positive inhibitor cocktail (ketoconazole 10 µM, quinidine 10 µM, sulfobenzyrazole 100 µM, α-naphthoflavone 10 µM, tranylcypromine 1000 µM), a negative control (BPS with 0.1% DMSO) and a mixed probe substrate (midazolam 10 µM, testosterone 100 µM, dextromethorphan 10 µM, diclofenac 20 µM, phenacetin100 µM, mephenytoin100 µM), and the reaction was terminated after a warm incubation for 20 min.The relative enzyme activity was calculated by measuring the relative amount of metabolites produced.

The target in a further series is T2, CYP1A2 (Homo sapiens, UniProt P05177).
T2 construct: a system of 100 µL of human liver microsomes (final concentration 0.2 mg/mL); from tissue; host or cells: human liver microsomes
T2 sequence (P05177 1-516): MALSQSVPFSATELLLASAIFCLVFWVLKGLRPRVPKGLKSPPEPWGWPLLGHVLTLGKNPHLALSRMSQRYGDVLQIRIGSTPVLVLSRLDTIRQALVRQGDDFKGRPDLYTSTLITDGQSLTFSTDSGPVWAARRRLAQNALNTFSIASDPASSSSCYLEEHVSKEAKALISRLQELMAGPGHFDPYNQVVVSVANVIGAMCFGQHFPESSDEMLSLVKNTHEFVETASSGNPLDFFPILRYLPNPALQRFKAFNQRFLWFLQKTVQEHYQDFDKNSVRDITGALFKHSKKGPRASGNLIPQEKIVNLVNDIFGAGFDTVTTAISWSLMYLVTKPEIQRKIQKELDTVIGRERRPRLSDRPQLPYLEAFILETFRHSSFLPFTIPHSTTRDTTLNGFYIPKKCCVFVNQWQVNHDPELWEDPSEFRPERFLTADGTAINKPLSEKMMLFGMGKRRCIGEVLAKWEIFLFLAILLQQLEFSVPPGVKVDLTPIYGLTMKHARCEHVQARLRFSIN
The series is described as follows: Direct inhibition test (DI test), CYP1A2. As to conditions: human liver microsomes. The class given is in vitro ADME. How it is done:
as §3

Series [4] concerns MiaPaca-2 cells (pancreatic cancer). The series is described as follows: Proliferation test method 1 (2D, MTT), MiaPaca-2. As to conditions: Homo sapiens, MIA PaCa-2, 2D, 5-7 days, read-out: IC50/nM proliferation inhibitory activity on MiaPaca-2 cells. The class given is cell-based. How it is done:
as §1

The nature of series [5]: Metabolic stability assay, mouse liver microsomes. Format: in vitro ADME. The following applies: mouse liver microsomes 0.5 mg/mL, 1 µM compound, read-out: Liver microsomal stability (T½ /min) Mouse. On the procedure:
as §2

The subject of series [6] is transplanted tumor of MiaPaca-2, NCI-H358 tumor cells. The series is described as follows: Growth inhibition of transplanted tumor in nude mice. The following applies: 10 mg/kg orally, after two weeks of administration. Format: in vivo. How it is done: The tumor tissues in the peak growth period were cut into 1.5 mm^3 and inoculated into the right axillary subcutis of nude mice under aseptic conditions. The subcutaneous transplanted tumors of nude mice were measured by vernier calipers for the diameter of the transplanted tumors, and the animals were randomly grouped when the average volume of the tumors reached about 130 mm^3.The example compound (injection water containing 1% Tween 80 was prepared to the desired concentration and then left to be used) was administered orally at the given dose daily for three weeks, and the solvent control group was given an equal amount of solvent. The transplanted tumor diameter was measured twice a week throughout the experiment, and the mice were weighed at the same time.The tumor volume (TV) was calculated by the formula: TV = ½×a×b^2, where a and b are the length and width, respectively.

The next series concerns NCI-H358 cells. The experiment in a line: Proliferation test method 2 (3D, Cell Titer Glo 3D), NCI-H358. The class given is cell-based. The following applies: Homo sapiens, NCI-H358, 96 h, read-out: IC50 cell proliferation inhibitory activity against NCI-H358. How it is done: (§4) Test method 2 (3D): The tumor cells in the logarithmic growth phase were diluted with culture solution to a certain concentration and inoculated on the 96-well plate on the ultra-low attachment surface, and the culture medium was 80 µL/well. Cells were incubated overnight at 37° C. in a humidity chamber. On the second day, a series of diluted test compounds (10 concentrations, 3 times dilution) were added to the plate, 20 µL/well, incubated in an incubator for 96h.The plates are removed and placed at room temperature and incubated with an equal volume of Cell Titer Glo®3D reagent for 1 h. The signal is detected by the En Vision™ plate reader. […] A four-parameter nonlinear regression curve was fitted to the percent inhibition for each concentration of the compound and the IC50 was calculated.

The next series deals with MiaPaca-2 cells. The experiment in a line: Proliferation test method 2 (3D, Cell Titer Glo 3D), MiaPaca-2. The class given is cell-based. The following applies: Homo sapiens, MIA PaCa-2, 96 h, read-out: IC50 cell proliferation inhibitory activity against MiaPaca-2. How it is done: as §4
(In general: Cellular ATP, detected with luciferase, serves as a proxy for viable cell number.)

T1 sequence (P08684 whole entry): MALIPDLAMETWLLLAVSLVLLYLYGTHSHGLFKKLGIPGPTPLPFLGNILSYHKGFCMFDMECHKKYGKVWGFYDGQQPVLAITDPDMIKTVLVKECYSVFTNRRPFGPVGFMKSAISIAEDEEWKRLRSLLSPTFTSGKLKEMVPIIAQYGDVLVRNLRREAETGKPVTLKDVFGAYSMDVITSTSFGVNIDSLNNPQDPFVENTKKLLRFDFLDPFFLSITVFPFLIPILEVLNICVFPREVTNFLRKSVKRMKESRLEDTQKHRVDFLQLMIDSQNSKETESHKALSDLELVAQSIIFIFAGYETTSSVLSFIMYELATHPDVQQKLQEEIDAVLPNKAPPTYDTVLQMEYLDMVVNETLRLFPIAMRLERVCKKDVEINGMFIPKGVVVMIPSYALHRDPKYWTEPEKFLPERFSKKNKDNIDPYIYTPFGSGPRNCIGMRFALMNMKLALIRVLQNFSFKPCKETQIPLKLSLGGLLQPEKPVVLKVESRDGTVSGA

On to `C=CC(=O)N1CCN(c2c(C#N)c(OC[C@@H]3CCCN3C)nc3c(F)c(-c4ccc(F)c5sc(N)nc45)c(Cl)cc23)CC1` [Example 3, 4-(4-Piperazinylacryloylpiperazin-1-yl)-7-(2-Amino-7-Fluorobenzo[d]Thiazol-4-yl)-6-Chloro-8-Fluoro-2-(((S)-1-Methylpyrrolidin-2-Yl)Methoxy)Quinoline-3-Cyano], for which the IC50 was less than 0.1 µM in series [1], greater than 10 µM against CYP3A4 and greater than 10 µM on CYP1A2. For the same molecule, the half-life at 1 µM in [2] and in [3] was greater than 30 min throughout.
In the case of `C=CC(=O)N1C[C@@H]2C(=O)N(C)c3cnc4c(F)c(-c5ccc(F)c6sc(N)nc56)c(Cl)cc4c3N2C[C@H]1C` (single isomer, unassigned) [Example 17-1], the IC50 was 24.8 nM in series [4], greater than 10 µM against CYP3A4 and greater than 10 µM on CYP1A2. For the same molecule, in series [5], the half-life at 1 µM is greater than 30 min.
For `C=CC(=O)N1CCN(c2c(C#N)cnc3c(F)c(-c4ccc(F)c5sc(N)nc45)c(Cl)cc23)CC1` [Example 8], the IC50 in series [1] is less than 0.1 µM; on CYP3A4, greater than 10 µM; in the series on NCI-H358 cells, less than 0.2 µM; against CYP1A2, greater than 10 µM; with MiaPaca-2 cells, less than 0.2 µM. Also, the half-life at 1 µM in series [3] and in [5] was greater than 30 min each time. The tumor regression entry in [6] is “tumor regression was achieved”.
As to `C=CC(=O)N1CCN(c2c(C#N)c(N3CC(N(C)C)C3)nc3c(F)c(-c4ccc(F)c5sc(N)nc45)c(Cl)cc23)CC1` [Example 21, 4-(4-acryloyl Piperazin-1-yl)-7-(2-Amino-7-Fluorobenzo [d] Thiazol-4-yl) -6-Chloro-2-(3-(Dimethylamino) Azetidine-1-yl)-8-Fluoroquinolin-3 -Cyano], the IC50 was less than 0.1 µM in series [1], greater than 10 µM against CYP3A4 and greater than 10 µM against CYP1A2. Further, in [3], the half-life at 1 µM is greater than 30 min.
As to `C=CC(=O)N1CCN(c2nc(OC[C@@H]3CCCN3C)nc3c(F)c(-c4ccc(F)c5sc(N)nc45)c(Cl)cc23)C[C@H]1C` [Example 11, 1-((2R)-4-(7-(2-Amino-7-Fluorobenzo [d] Thiazol-4-yl) -6-Chloro-8-Fluoro-2-(((S)-1-Methylpyrrolidin-2-yl) Methoxy) Quinazolin-4-yl)-2-Methylpiperazin-1-yl) Prop-2-En-1-One], the IC50 was less than 0.1 µM in series [1]; greater than 10 µM on CYP3A4; less than 0.2 µM with NCI-H358 cells; greater than 10 µM against CYP1A2; less than 0.2 µM with MiaPaca-2 cells. Besides, in series [2], the half-life at 1 µM was greater than 30 min.
